Test results reported in PubChem BioAssay (NCI).
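Values below derive from 48-hour exposures of cells grown in 96-well plates, with endpoints linearly interpolated between the two concentrations bracketing the appropriate inhibition level. TGI: total growth inhibition.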

Key:
Test in all cases: inhibition of tumour cell growth, NCI panel, 48 h
HL-60(TB) leukemia = test system: HL-60(TB) leukemia
MOLT-4 leukemia = test system: MOLT-4 leukemia
DMS 114 small cell lung = test system: DMS 114 small cell lung
HOP-92 NSCLC = test system: HOP-92 NSCLC
HCC-2998 colon = test system: HCC-2998 colon
ACHN renal = test system: ACHN renal
A549 NSCLC = test system: A549 NSCLC
KM12 colon = test system: KM12 colon
COLO 205 colon = test system: COLO 205 colon
SW-620 colon = test system: SW-620 colon
SK-MEL-28 melanoma = test system: SK-MEL-28 melanoma
HOP-62 NSCLC = test system: HOP-62 NSCLC
LXFL 529 NSCLC = test system: LXFL 529 NSCLC
HCT-116 colon = test system: HCT-116 colon
OVCAR-8 ovarian = test system: OVCAR-8 ovarian
SNB-19 CNS = test system: SNB-19 CNS
HCT-15 colon = test system: HCT-15 colon
K-562 leukemia = test system: K-562 leukemia
NCI-H23 lung = test system: NCI-H23 lung
UO-31 renal = test system: UO-31 renal
OVCAR-4 ovarian = test system: OVCAR-4 ovarian
HT29 colon = test system: HT29 colon
DMS 273 small cell lung = test system: DMS 273 small cell lung
OVCAR-5 ovarian = test system: OVCAR-5 ovarian
M19-MEL melanoma = test system: M19-MEL melanoma
KM20L2 colon = test system: KM20L2 colon
RPMI-8226 leukemia = test system: RPMI-8226 leukemia
U251 CNS = test system: U251 CNS
IGROV1 ovarian = test system: IGROV1 ovarian
SR leukemia = test system: SR leukemia
HOP-18 NSCLC = test system: HOP-18 NSCLC
SN12C renal = test system: SN12C renal
NCI-H460 lung = test system: NCI-H460 lung
SK-MEL-2 melanoma = test system: SK-MEL-2 melanoma
SNB-78 CNS = test system: SNB-78 CNS
TK-10 renal = test system: TK-10 renal
EKVX NSCLC = test system: EKVX NSCLC
SNB-75 CNS = test system: SNB-75 CNS
UACC-62 melanoma = test system: UACC-62 melanoma
SF-539 CNS = test system: SF-539 CNS
CCRF-CEM leukemia = test system: CCRF-CEM leukemia
SK-MEL-5 melanoma = test system: SK-MEL-5 melanoma
UACC-257 melanoma = test system: UACC-257 melanoma
LOX IMVI melanoma = test system: LOX IMVI melanoma
NCI-H226 lung = test system: NCI-H226 lung
RXF 393 renal = test system: RXF 393 renal
SF-268 CNS = test system: SF-268 CNS
M14 melanoma = test system: M14 melanoma
OVCAR-3 ovarian = test system: OVCAR-3 ovarian
PC-3 prostate = test system: PC-3 prostate
MDA-MB-435 = test system: MDA-MB-435
SF-295 CNS = test system: SF-295 CNS
T-47D breast = test system: T-47D breast
DU-145 prostate = test system: DU-145 prostate
NCI/ADR-RES ovarian = test system: NCI/ADR-RES ovarian
MALME-3M melanoma = test system: MALME-3M melanoma
MDA-MB-231 breast = test system: MDA-MB-231 breast
CAKI-1 renal = test system: CAKI-1 renal
786-0 renal = test system: 786-0 renal
MCF7 breast = test system: MCF7 breast
HS 578T breast = test system: HS 578T breast
A498 renal = test system: A498 renal
NCI-H522 lung = test system: NCI-H522 lung
SK-OV-3 ovarian = test system: SK-OV-3 ovarian
BT-549 breast = test system: BT-549 breast
MDA-N = test system: MDA-N
DLD-1 colon = test system: DLD-1 colon

Work on Cc1cc(=O)[nH]c(NN2C(Cl)C(=O)C2c2c(O)ccc3ccccc23)n1 (configuration not stated) yielded a TGI (HL-60(TB) leukemia) of 49.3 µM, a TGI (MOLT-4 leukemia) of 64.1 µM and a TGI (DMS 114 small cell lung) of 56 µM. It also gave a TGI (HOP-92 NSCLC) of 34.5 µM, a TGI (HCC-2998 colon) of 32.6 µM and a TGI (ACHN renal) greater than 100 µM. It also gave a TGI (A549 NSCLC) greater than 100 µM, a TGI (KM12 colon) of 61.5 µM and a TGI (COLO 205 colon) of 58.2 µM. The TGI (SW-620 colon) was greater than 100 µM, the TGI (SK-MEL-28 melanoma) was 44.1 µM and the TGI (HOP-62 NSCLC) was 77 µM. For the same molecule, the TGI (LXFL 529 NSCLC) was 30.3 µM, the TGI (HCT-116 colon) was 48.8 µM and the TGI (OVCAR-8 ovarian) was greater than 100 µM. For the same molecule, the TGI (SNB-19 CNS) was 77.6 µM, the TGI (HCT-15 colon) was 36.9 µM and the TGI (K-562 leukemia) was greater than 100 µM. It also gave a TGI (NCI-H23 lung) of 39.7 µM, a TGI (UO-31 renal) greater than 100 µM and a TGI (OVCAR-4 ovarian) of 51.7 µM. The TGI (HT29 colon) was 74 µM, the TGI (DMS 273 small cell lung) was 33.1 µM and the TGI (OVCAR-5 ovarian) was greater than 100 µM. It also gave a TGI (M19-MEL melanoma) greater than 100 µM, a TGI (KM20L2 colon) of 66.8 µM and a TGI (RPMI-8226 leukemia) of 53.5 µM. The TGI (U251 CNS) was 63.1 µM, the TGI (IGROV1 ovarian) was greater than 100 µM and the TGI (SR leukemia) was 72.7 µM. For the same molecule, the TGI (HOP-18 NSCLC) was 53.5 µM, the TGI (SN12C renal) was 69.5 µM and the TGI (NCI-H460 lung) was 29.6 µM. It also gave a TGI (SK-MEL-2 melanoma) of 30.2 µM, a TGI (SNB-78 CNS) of 70.4 µM and a TGI (TK-10 renal) greater than 100 µM. The TGI (EKVX NSCLC) was greater than 100 µM, the TGI (SNB-75 CNS) was 39.2 µM and the TGI (UACC-62 melanoma) was 47.4 µM. The TGI (SF-539 CNS) was 41.1 µM, the TGI (CCRF-CEM leukemia) was greater than 100 µM and the TGI (SK-MEL-5 melanoma) was 29.9 µM. The TGI (UACC-257 melanoma) was greater than 100 µM, the TGI (LOX IMVI melanoma) was 32.7 µM and the TGI (NCI-H226 lung) was 45.6 µM. It also gave a TGI (RXF 393 renal) of 26.6 µM, a TGI (SF-268 CNS) greater than 100 µM and a TGI (M14 melanoma) of 29 µM. For the same molecule, the TGI (OVCAR-3 ovarian) was 64.9 µM.
Nc1nc(Sc2ccc([N+](=O)[O-])cn2)c2[nH]cnc2n1 gave a TGI (HL-60(TB) leukemia) greater than 59.4 µM, a TGI (MOLT-4 leukemia) greater than 35.8 µM and a TGI (HOP-92 NSCLC) of 38.7 µM. It also gave a TGI (HCC-2998 colon) of 96.8 µM, a TGI (ACHN renal) greater than 73.5 µM and a TGI (A549 NSCLC) of 62.1 µM. The TGI (PC-3 prostate) was 47.6 µM, the TGI (KM12 colon) was greater than 38.1 µM and the TGI (MDA-MB-435) was greater than 46.1 µM. It also gave a TGI (COLO 205 colon) of 39 µM, a TGI (SW-620 colon) greater than 100 µM and a TGI (SK-MEL-28 melanoma) greater than 100 µM. For the same molecule, the TGI (HOP-62 NSCLC) was greater than 100 µM, the TGI (HCT-116 colon) was greater than 39.7 µM and the TGI (SF-295 CNS) was greater than 94.2 µM. The TGI (T-47D breast) was greater than 42.3 µM, the TGI (DU-145 prostate) was 43.8 µM and the TGI (OVCAR-8 ovarian) was greater than 80.4 µM. For the same molecule, the TGI (NCI/ADR-RES ovarian) was 30.3 µM, the TGI (SNB-19 CNS) was 72.1 µM and the TGI (HCT-15 colon) was greater than 73.3 µM. The TGI (K-562 leukemia) was greater than 100 µM, the TGI (MALME-3M melanoma) was 36.1 µM and the TGI (NCI-H23 lung) was 31.2 µM. It also gave a TGI (UO-31 renal) of 24.7 µM, a TGI (OVCAR-4 ovarian) greater than 61.2 µM and a TGI (HT29 colon) greater than 74.3 µM. The TGI (MDA-MB-231 breast) was 35.1 µM, the TGI (OVCAR-5 ovarian) was greater than 100 µM and the TGI (CAKI-1 renal) was 71.7 µM. The TGI (786-0 renal) was greater than 52.8 µM, the TGI (RPMI-8226 leukemia) was greater than 100 µM and the TGI (U251 CNS) was greater than 64.3 µM. It also gave a TGI (IGROV1 ovarian) of 77.9 µM, a TGI (SR leukemia) greater than 100 µM and a TGI (SN12C renal) of 29.4 µM. It also gave a TGI (MCF7 breast) greater than 100 µM, a TGI (NCI-H460 lung) greater than 64.9 µM and a TGI (HS 578T breast) of 77.8 µM. The TGI (A498 renal) was 47.8 µM, the TGI (SK-MEL-2 melanoma) was 10.2 µM and the TGI (TK-10 renal) was greater than 100 µM. For the same molecule, the TGI (NCI-H522 lung) was 40.2 µM, the TGI (EKVX NSCLC) was 50.2 µM and the TGI (SNB-75 CNS) was 63.9 µM. The TGI (UACC-62 melanoma) was 11.6 µM, the TGI (SF-539 CNS) was greater than 100 µM and the TGI (SK-OV-3 ovarian) was greater than 51.1 µM. The TGI (CCRF-CEM leukemia) was greater than 41.5 µM, the TGI (BT-549 breast) was 52.1 µM and the TGI (SK-MEL-5 melanoma) was 31.2 µM. For the same molecule, the TGI (UACC-257 melanoma) was greater than 100 µM, the TGI (LOX IMVI melanoma) was 17.1 µM and the TGI (NCI-H226 lung) was 57.3 µM. For the same molecule, the TGI (RXF 393 renal) was greater than 30.4 µM, the TGI (MDA-N) was 34.6 µM and the TGI (SF-268 CNS) was greater than 100 µM. For the same molecule, the TGI (M14 melanoma) was 24.1 µM and the TGI (OVCAR-3 ovarian) was greater than 75 µM.
CN/N=C(/CC(=O)c1sc(-n2nc(-c3ccccc3)cc2-c2ccccc2)nc1C)C(=O)Nc1ccc(Cl)c(Cl)c1 was tested, and the TGI (MOLT-4 leukemia) was greater than 100 µM, the TGI (HOP-92 NSCLC) was 70.4 µM and the TGI (HCC-2998 colon) was greater than 100 µM. It also gave a TGI (ACHN renal) greater than 100 µM, a TGI (A549 NSCLC) greater than 100 µM and a TGI (KM12 colon) greater than 100 µM. For the same molecule, the TGI (COLO 205 colon) was greater than 100 µM, the TGI (SW-620 colon) was greater than 100 µM and the TGI (SK-MEL-28 melanoma) was greater than 100 µM. It also gave a TGI (DLD-1 colon) greater than 100 µM, a TGI (HOP-62 NSCLC) greater than 100 µM and a TGI (LXFL 529 NSCLC) greater than 100 µM. The TGI (HCT-116 colon) was greater than 100 µM, the TGI (SF-295 CNS) was greater than 100 µM and the TGI (OVCAR-8 ovarian) was greater than 100 µM. For the same molecule, the TGI (SNB-19 CNS) was greater than 100 µM, the TGI (HCT-15 colon) was greater than 100 µM and the TGI (K-562 leukemia) was greater than 100 µM. It also gave a TGI (MALME-3M melanoma) greater than 100 µM, a TGI (NCI-H23 lung) greater than 100 µM and a TGI (UO-31 renal) greater than 100 µM. It also gave a TGI (OVCAR-4 ovarian) greater than 100 µM, a TGI (HT29 colon) greater than 100 µM and a TGI (OVCAR-5 ovarian) of 69.6 µM. For the same molecule, the TGI (M19-MEL melanoma) was greater than 100 µM, the TGI (CAKI-1 renal) was greater than 100 µM and the TGI (786-0 renal) was greater than 100 µM. For the same molecule, the TGI (RPMI-8226 leukemia) was greater than 100 µM, the TGI (U251 CNS) was greater than 100 µM and the TGI (IGROV1 ovarian) was greater than 100 µM. It also gave a TGI (SR leukemia) greater than 100 µM, a TGI (SN12C renal) greater than 100 µM and a TGI (NCI-H460 lung) greater than 100 µM. It also gave a TGI (A498 renal) greater than 100 µM, a TGI (SK-MEL-2 melanoma) greater than 100 µM and a TGI (SNB-78 CNS) greater than 100 µM. It also gave a TGI (NCI-H522 lung) greater than 100 µM, a TGI (EKVX NSCLC) of 17.7 µM and a TGI (UACC-62 melanoma) greater than 100 µM. The TGI (SF-539 CNS) was greater than 100 µM, the TGI (SK-OV-3 ovarian) was greater than 100 µM and the TGI (CCRF-CEM leukemia) was greater than 100 µM. The TGI (SK-MEL-5 melanoma) was greater than 100 µM, the TGI (UACC-257 melanoma) was greater than 100 µM and the TGI (LOX IMVI melanoma) was greater than 100 µM. The TGI (NCI-H226 lung) was greater than 100 µM, the TGI (RXF 393 renal) was greater than 100 µM and the TGI (SF-268 CNS) was greater than 100 µM. For the same molecule, the TGI (OVCAR-3 ovarian) was greater than 100 µM.
